Assay results as given in PMC12410356 (International Journal for Parasitology: Drugs and Drug …, 2025).

Experiments:
[1] = tested on: E. multilocularis metacestode vesicles; experiment: Metacestode vesicle viability assay (ATP, CellTiter-Glo); type: cell-based, Echinococcus multilocularis
Description: Viability was assessed after 12 days using the same metacestode vesicles as for the PGI release assay. Triton X-100 was added to each well to a final concentration of 0.1 %. Subsequently the metacestode vesicles were broken mechanically and 50 μL of the supernatant was mixed with 50 μL of CellTiter-Glo® buffer (Promega, Dübendorf, Switzerland). Measurements were performed on a HIDEX Sense microplate reader.

[2] = tested on: E. multilocularis metacestode vesicles; experiment: Phosphoglucose isomerase (PGI) release assay (damage-marker release) on metacestode vesicles; type: cell-based, Echinococcus multilocularis; details: 10 μM; for PGI d5 (relative PGI release): 5 days; for PGI d12 (relative PGI release): 12 days
Description: In order to quantify the drug-induced damage on whole metacestode vesicles, phosphoglucose isomerase (PGI) assay was performed as described previously ([Stadelmann et al., 2010]) with few adaptations published recently ([Kaethner et al., 2023]). In short, 8 to 12 weeks-old metacestode vesicles were purified using 2 % sucrose with subsequent washes in PBS. Metacestode vesicles were diluted in two volumes of DMEM without phenol red containing penicillin (100 U/mL) and streptomycin (100 μg/mL). […] 0.1 % DMSO was used as a negative solvent control and 0.1 % Triton X-100 was used as a positive total damage control. Metacestode vesicles were incubated under a humid, 5 % CO2 atmosphere at 37 °C. After five and twelve days, supernatant was taken and pictures were made using a Nikon SMZ18 stereo microscope (Nikon, Basel, Switzerland) at 7.5 × magnification. PGI activity in the supernatants was measured on a HIDEX Sense microplate reader (Hidex, Turku, Finland). The corresponding values of the DMSO controls were subtracted from the values of the compounds and then PGI activity was calculated relative to 0.1 % Triton X-100. […] IC50 values were calculated applying the 3 parameter Weibull type 1 in R for each of the three independent experiments ([Ritler et al., 2020]).

[3] = overview screen, 10 μM, singlets, 12 days, relative to DMSO control
[4] = overview screen, singlets, relative to 0.1 % Triton X-100, DMSO subtracted
[5] = confirmation screen, triplicates, mean

| SMILES | Viability d12 (relative viability) [1, 3] [%] | PGI d5 (relative PGI release) [2, 4] [%] | PGI d12 (relative PGI release) [2, 4] [%] | Viability d12 (relative viability) ([1]; 10 µM) [%] | Viability d12 (relative viability) ([1]; confirmation screen, 10 μM, triplicates, mean, 12 days) [%] | PGI d5 (relative PGI release) [2, 5] [%] | PGI d12 (relative PGI release) [2, 5] [%] |
| --- | --- | --- | --- | --- | --- | --- | --- |
| CC[C@H](NC(=O)[C@H](C)NC)C(=O)N1C[C@@H](O)C[C@H]1Cc1c(-c2[nH]c3cc(F)ccc3c2C[C@@H]2C[C@H](O)CN2C(=O)[C@H](CC)NC(=O)[C@H](C)NC)[nH]c2cc(F)ccc12 [MMV1557856] | 106.397 | -1.122 | -0.1165 | – | – | – | – |
| COc1cc(NS(=O)(=O)c2ccc(C)cc2)c2ncccc2c1 [MMV098836] | 72.5053 | -0.2103 | 2.3899 | – | – | – | – |
| CC(C)(C)c1ccc(C(=O)NC(=O)N2CCCc3ccccc32)cc1 [MMV1782212] | 85.4175 | -2.428 | -24.6748 | – | – | – | – |
| COc1nc2ccc(Br)cc2cc1[C@@H](c1ccccc1)[C@@](O)(CCN(C)C)c1cccc2ccccc12 [MMV689758] | 111.826 | -2.925 | -4.755 | – | – | – | – |
| CCCC(=O)OCCc1ccccc1 [MMV1578899] | 64.2092 | -0.4977 | -12.5447 | – | – | – | – |
| CC(C)Oc1cccc(NC(=O)c2ccccc2C(F)(F)F)c1 [MMV1009286] | 77.2348 | -2.405 | -25.3832 | – | – | – | – |
| C(=C\c1nc2ccccc2[nH]1)/c1ccc2c(c1)OCO2 [MMV1582495] | 98.8605 | -1.5423 | -10.1943 | – | – | – | – |
| CC1CCc2c(N3CCC(O)CC3)c(F)cc3c(=O)c(C(=O)O)cn1c23 (stereo not drawn) [MMV637659] | – | -2.748 | -5.473 | 137.188 | – | – | – |
| CCNC(=O)Nc1cc(-c2ccccc2)c(-c2cncc(C(=O)O)c2)cn1 [MMV1593534] | 81.2426 | -2.168 | -24.3929 | – | – | – | – |
| CCc1ccccc1OCCN1CCCCCC1 [MMV1633962] | 159.976 | 1.217 | -18.8642 | – | – | – | – |
| Cc1cc(CCOc2c(C)cc(-c3nnn(C)n3)cc2C)on1 [MMV1782349] | 107.625 | -0.7312 | -0.8271 | – | – | – | – |
| Cc1cc(NS(=O)(=O)c2ccc(-c3ccc(F)cc3F)cc2)no1 [MMV1782217] | 58.3644 | -2.099 | -26.6121 | – | – | – | – |
| Cc1c(CN(C)C(=O)/C=C/c2cnc3c(c2)C(C)(C)C(=O)N3)oc2ccccc12 [MMV1579788] | 5.845 | 17.9293 | 63.9713 | – | 76.12 | -0.0109 | -0.0852 |
| CC(C)(C)c1cccc(-c2nc3cc(C(=N)N)ccc3[nH]2)c1O [MMV1581548] | 76.2328 | -1.312 | -24.7037 | – | – | – | – |
| COC(=O)Nc1nc2c(C)cccc2[nH]1 [MMV1782387] | 91.1788 | -0.1734 | -20.8652 | – | – | – | – |
| CN(C)CCCOc1ccc(-c2ccc3ncc4c(c3c2)n(C2CCOCC2)c(=O)n4C)cn1 [MMV1580483] | – | -0.0428 | 2.3899 | 49.6824 | – | – | – |
